As a reminder, the IC50 is the concentration at which inhibition is half-maximal.

Where only a bound is given, the exact number is not on record here.

Chain of recombinant human TYRO3 (Q06418 41-890): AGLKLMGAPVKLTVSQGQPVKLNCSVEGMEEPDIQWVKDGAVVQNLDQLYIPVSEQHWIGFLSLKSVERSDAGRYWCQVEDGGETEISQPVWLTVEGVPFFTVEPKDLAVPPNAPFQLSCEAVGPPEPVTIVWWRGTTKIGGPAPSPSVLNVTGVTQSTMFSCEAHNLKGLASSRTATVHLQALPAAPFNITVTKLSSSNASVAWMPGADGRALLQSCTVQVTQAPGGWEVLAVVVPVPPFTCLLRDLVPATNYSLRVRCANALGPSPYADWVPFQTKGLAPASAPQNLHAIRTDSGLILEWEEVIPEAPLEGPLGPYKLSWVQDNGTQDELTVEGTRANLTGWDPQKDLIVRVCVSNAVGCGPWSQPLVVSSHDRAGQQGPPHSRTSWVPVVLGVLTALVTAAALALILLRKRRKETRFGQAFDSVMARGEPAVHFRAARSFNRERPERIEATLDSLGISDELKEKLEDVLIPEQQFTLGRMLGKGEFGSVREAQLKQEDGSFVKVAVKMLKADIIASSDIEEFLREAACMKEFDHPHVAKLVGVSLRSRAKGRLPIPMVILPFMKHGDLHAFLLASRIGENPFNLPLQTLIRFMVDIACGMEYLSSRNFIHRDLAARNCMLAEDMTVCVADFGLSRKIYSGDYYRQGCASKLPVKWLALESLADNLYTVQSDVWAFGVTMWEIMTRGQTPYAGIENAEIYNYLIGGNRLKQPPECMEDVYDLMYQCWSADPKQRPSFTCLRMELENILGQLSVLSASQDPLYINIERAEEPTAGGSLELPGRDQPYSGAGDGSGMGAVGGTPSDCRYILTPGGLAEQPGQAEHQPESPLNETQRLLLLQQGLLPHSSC

This experiment addresses recombinant human TYRO3 (Homo sapiens (Human), UniProt Q06418). As to the kind of experiment: TYRO3 enzymatic assay (radiometric [32P]-ATP, Poly(Glu,Tyr) substrate). In kind it is biochemical. The settings on record: recombinant human TYRO3, [32P]-ATP. On the procedure: Poly(Glu, Tyr) sodium salt (Glu:Tyr (4:1), quality level 200, molecular weight 5,000-20,000, obtained from Sigma Aldrich, catalogue #P7244, assay concentration 0.20 mg/mL) and recombinant human TYRO3 (obtained from ThermoFisher Scientific, catalogue #PV3828, assay concentration 2 nM) were mixed in assay buffer (20 mM Hepes pH 7.5, 10 mM MgCl2, 1 mM EGTA, 0.02% Brij35, 0.02 mg/ml BSA, 0.1 mM Na3VO4, 2 mM DTT, 1% DMSO, with added MnCl2 at a final concentration of 2 mM). Compounds of interest (in DMSO, serial 3-fold dilution from 10 μM to 0.5 nM) or control (1% DMSO) were dispensed into the kinase reaction mixture by Acoustic technology (Echo550; nanoliter range). After incubation at room temperature for 20 minutes, the kinase reaction was initiated by addition of [^32P]-ATP (Specific activity 10 μCi/μl) and the mixture was incubated at room temperature for 2 hours. The reaction was then stopped by spotting the reaction mixture on strips of phosphocellulose P81 paper. Following washing, the radioactivity of the P81 paper was measured and kinase activity data were expressed as the percent remaining kinase activity in test samples compared to vehicle (dimethyl sulfoxide) reactions. IC50 values and curve fits were obtained using Prism (GraphPad Software).
As for `COc1ccc(-c2c[nH]c3ncc(-c4ccc(CN5CCCC(O)C5)cc4)cc23)cn1` (single isomer, unassigned; enantiomer 1) [compound 26, 1-(4-(3-(6-methoxypyridin-3-yl)-1H-pyrrolo[2,3-b]pyridin-5-yl)benzyl)piperidin-3-ol Enantiomer 1], the half-inhibitory concentration (IC50) is below 0.051 µM. Regarding `COc1ccc(-c2c[nH]c3ncc(-c4ccc(CN5CCCC(OC)C5)cc4)cc23)cn1` (single isomer, unassigned; enantiomer 1) [compound 38, 5-(4-((3-methoxypiperidin-1-yl)methyl)phenyl)-3-(6-methoxypyridin-3-yl)-1H-pyrrolo[2,3-b]pyridine Enantiomer 1], the IC50 lay within 0.151 to 0.5 µM.

Turning to `OCc1[nH]c2ncc(-c3ccc(CN4CCCC(O)C4)cc3)cc2c1-c1cccc(F)c1` (single isomer, unassigned; enantiomer 1) [compound 88, 1-(4-(3-(3-fluorophenyl)-2-(hydroxymethyl)-1H-pyrrolo[2,3-b]pyridin-5-yl)benzyl)piperidin-3-ol Enantiomer 1], the IC50 was 0.151 to 0.5 µM.

As to `COc1ccc(-c2c[nH]c3ncc(-c4ccc(CN5CCCC(O)C5)cc4)cc23)cn1` (single isomer, unassigned; enantiomer 2) [compound 27, 1-(4-(3-(6-methoxypyridin-3-yl)-1H-pyrrolo[2,3-b]pyridin-5-yl)benzyl)piperidin-3-ol Enantiomer 2], the IC50 was in the range of 0.051 to 0.15 µM. As for `OCc1[nH]c2ncc(-c3ccc(CN4CCCC(O)C4)cc3)cc2c1-c1cccc(F)c1` (single isomer, unassigned; enantiomer 2) [compound 89, 1-(4-(3-(3-fluorophenyl)-2-(hydroxymethyl)-1H-pyrrolo[2,3-b]pyridin-5-yl)benzyl)piperidin-3-ol Enantiomer 2], the figure is 0.051 to 0.15 µM.

With `Cc1ccc(-c2c[nH]c3ncc(-c4ccc(CN5CCCC(O)C5)cc4)cc23)cc1` (stereo not shown) [compound 1, 1-(4-(3-(p-tolyl)-1H-pyrrolo[2,3-b]pyridin-5-yl)benzyl)piperidin-3-ol], the IC50 is 0.051 to 0.15 µM. Regarding `OC1CCCN(Cc2ccc(-c3cnc4[nH]cc(-c5ccc(F)cc5)c4c3)cc2)C1` (stereo not shown) [compound 3, 1-(4-(3-(4-fluorophenyl)-1H-pyrrolo[2,3-b]pyridin-5-yl)benzyl)piperidin-3-ol], the IC50 is 0.051 to 0.15 µM. As for `CC1(O)CCCN(Cc2ccc(-c3cnc4[nH]cc(-c5cccc(F)c5)c4c3)cc2)C1` (stereo not shown) [compound 5, 1-(4-(3-(3-fluorophenyl)-1H-pyrrolo[2,3-b]pyridin-5-yl)benzyl)-3-methylpiperidin-3-ol], the figure is 0.051 to 0.15 µM; as for `Fc1cccc(-c2c[nH]c3ncc(-c4ccc(CN5C[C@@H]6C[C@H]5CO6)cc4)cc23)c1` [compound 6, (1S,4S)-5-(4-(3-(3-fluorophenyl)-1H-pyrrolo[2,3-b]pyridin-5-yl)benzyl)-2-oxa-5-azabicyclo[2.2.1]heptane], 0.051 to 0.15 µM.

Turning to `OC1CCCN(Cc2ccc(-c3cnc4[nH]cc(-c5ccc(Cl)cc5)c4c3)cc2)C1` (stereo not shown) [compound 7, 1-(4-(3-(4-chlorophenyl)-1H-pyrrolo[2,3-b]pyridin-5-yl)benzyl)piperidin-3-ol], the IC50 was in the range of 0.051 to 0.15 µM. The value for `OC1CCCN(Cc2ccc(-c3cnc4[nH]cc(-c5cccc(Cl)c5)c4c3)cc2)C1` (stereo not shown) [compound 8, 1-(4-(3-(3-chlorophenyl)-1H-pyrrolo[2,3-b]pyridin-5-yl)benzyl)piperidin-3-ol] was 0.051 to 0.15 µM; that for `OC1CCCN(Cc2ccc(-c3cnc4[nH]cc(-c5ccc(C(F)(F)F)cc5)c4c3)cc2)C1` (stereo not shown) [compound 10, 1-(4-(3-(4-(trifluoromethyl)phenyl)-1H-pyrrolo[2,3-b]pyridin-5-yl)benzyl)piperidin-3-ol] was 0.151 to 0.5 µM. As for `OC1CCCN(Cc2ccc(-c3cnc4[nH]cc(-c5cccc(C(F)(F)F)c5)c4c3)cc2)C1` (stereo not shown) [compound 11, 1-(4-(3-(3-(trifluoromethyl)phenyl)-1H-pyrrolo[2,3-b]pyridin-5-yl)benzyl)piperidin-3-ol], the figure is 0.051 to 0.15 µM.

These data come from patent publication US20240425499A1, “TYRO3 INHIBITORS” (HALIA THERAPEUTICS, INC., priority 2021, published 2024).
